# Values of other authors in patent publication US8470831B2, “Acrylamido derivatives useful as inhibitors of the mitochondrial permeability transition” (Cogenia SRL, priority 2008, dated 2013).
# Experiments:
# [1] = test system: rat liver mitochondrial membranes
# [2] = mdx and Scgd-/- mice
# [3] = mouse, myocardial infarction and reperfusion injury
# [4] = rat, transient focal cerebral ischemia
# [5] = rat, TNF-α-dependent acute inflammatory hepatitis
# [6] = patients, one month treatment
molecule,measurement,setting,value
"COc1ccc(CN2CCN(CCCSc3cc(C(C)(C)C)c(O)c(C(C)(C)C)c3)CC2)c(OC)c1OC [Compound S-15176, N-[(3,5-di-tert-butyl-4-hydroxy-1-thiophenyl)]-3-propyl-N′-(2,3,4-trimethoxybenzyl)piperazine]",mitochondrial membrane depolarization and respiration uncoupling,[1],induces depolarization of the mitochondrial membrane and respiration uncoupling
C/C=C/C[C@@H](C)[C@@H](O)[C@H]1C(=O)N[C@@H](CC)C(=O)N(C)[C@H](C)C(=O)N(CC)[C@@H](C(C)C)C(=O)N[C@@H](C(C)C)C(=O)N(C)[C@@H](CC(C)C)C(=O)N[C@@H](C)C(=O)N[C@H](C)C(=O)N(C)[C@@H](CC(C)C)C(=O)N(C)[C@@H](CC(C)C)C(=O)N(C)[C@@H](C(C)C)C(=O)N1C [Debio-025],mitochondrial swelling and necrotic disease,[2],reduced mitochondrial swelling and necrotic disease
same,infarct size,[3],reduced infarct size
C/C=C/C[C@@H](C)[C@@H](O)[C@H]1C(=O)N[C@@H](CC)C(=O)N(C)CC(=O)N(C)[C@@H]([C@@H](C)CC)C(=O)N[C@@H](C(C)C)C(=O)N(C)[C@@H](CC(C)C)C(=O)N[C@@H](C)C(=O)N[C@H](C)C(=O)N(C)[C@@H](CC(C)C)C(=O)N(C)[C@@H](CC(C)C)C(=O)N(C)[C@@H](C(C)C)C(=O)N1C [NIM811],protection,[4],40%
Cyclosporin A,liver damage,[5],strongly reduces liver damage
same,mitochondrial function,[6],amelioration of mitochondrial function
